Source: patent publication US6586438B2, “Antidiabetic formulation and method” (Bristol-Myers Squibb Co., priority 1999, dated 2003)

Legend:
Type in all cases: in vivo, human
[1] = test system: drug naive patients with type 2 diabetes mellitus; assay: Double-blind first line therapy clinical study: body weight and plasma lipid profile; conditions: as glycemic control improved
Excerpt: This study was a 34 week, multicenter, randomized, placebo-controlled, double-blind, parallel study with an optional long-term, open-label treatment phase. […] Patients were drug naive or had no oral antihyperglycemic therapy for the 2 months prior to screening. […] However, recruitment continued for up to 6 months to recruit up to a maximum of 150 patients per arm to provide additional safety information. The design included 3 periods as follows: Period B began the randomized, double-blind, parallel quadruple dummy treatment phase. Eligible patients were randomized to 1 of 5 study arms which included placebo, glyburide monotherapy, metformin monotherapy, and two different dose strengths of fixed combination metformin/glyburide product (Examples 1 and 2). Subjects were maintained on once daily dosing for a 4 week period so that the contribution of the individual components of the combination product can be assessed by short term glycemic parameters. Period C was the continuation of the randomized, double-blind treatment phase. […] Analysis for the primary outcome, the change from baseline in HbA1c of the two combination therapies (Examples 1 and 2) relative to placebo, was assessed at week 16 of Period C which was after 20 weeks of randomized, double-blind treatment. […]

[2] = test system: drug naive patients with type 2 diabetes mellitus; assay: Double-blind first line therapy clinical study: hemoglobin A1c (HbA1c); conditions: for frequency of subjects achieving glycemic target of HbA1c<7%: following 20 weeks of double-blind therapy; for glycemic response for baseline HbA1c levels >9%: initial therapy
Description: The dosage strengths of fixed combination product evaluated included metformin 250 mg with glyburide 1.25 mg, and metformin 500 mg with glyburide 2.5 mg. Glycemic control was assessed using Hemoglobin A1c (HbA1c), the gold-standard measure of long-term glycemic control. Mean change from baseline in HbA1c following a 20 week treatment period (4 weeks stable once daily dose, 4 week titration and 12 weeks stable dose) were compared. The treatment phase continued for an additional 12 weeks to assess durability of efficacy. This study was a 34 week, multicenter, randomized, placebo-controlled, double-blind, parallel study with an optional long-term, open-label treatment phase. The primary outcome variable for efficacy was the change from baseline in HbA1c of the two combination therapies relative to placebo following 20 weeks of randomized treatment. 2. […] Therapeutic plasma glucose response will be defined as a FPG<126 mg/dL (based on current ADA guidelines for FPG). […] Patients were drug naive or had no oral antihyperglycemic therapy for the 2 months prior to screening. […] However, recruitment continued for up to 6 months to recruit up to a maximum of 150 patients per arm to provide additional safety information. The design included 3 periods as follows: Period B began the randomized, double-blind, parallel quadruple dummy treatment phase. Eligible patients were randomized to 1 of 5 study arms which included placebo, glyburide monotherapy, metformin monotherapy, and two different dose strengths of fixed combination metformin/glyburide product (Examples 1 and 2). Subjects were maintained on once daily dosing for a 4 week period so that the contribution of the individual components of the combination product can be assessed by short term glycemic parameters. Period C was the continuation of the randomized, double-blind treatment phase. Subjects were titrated for glycemic control over the first four weeks then dose was maintained for a 24 week stable dose treatment segment. Analysis for the primary outcome, the change from baseline in HbA1c of the two combination therapies (Examples 1 and 2) relative to placebo, was assessed at week 16 of Period C which was after 20 weeks of randomized, double-blind treatment. This was done at this time as there had been adequate time for stabilization of HbA1c and for safety reasons as it was anticipated that a high number of placebo treated patients may have had to discontinue randomized study medication due to insufficient glycemic control as treatment duration was extended. […] The study remained blinded and those subjects who discontinued randomized study drug due to lack of efficacy were eligible to begin the long-term, open-label treatment phase with fixed combination product. Following completion of the single-blind lead-in phase (Period A), qualifying subjects commenced therapy in the randomized, double-blind treatment phase (Period B). […] Following completion of the 4 week stable once daily dose phase (Period B) subjects continued the same randomized therapy in the 28 week titration/stable dose treatment phase (Period C). Study medication was titrated at visits Cl, C15 and C29. Medication was dosed with the first morning meal and with the evening meal. […] After the 4 week titration segment in Period C, subjects continued on a stable dose of study medication for the remainder of Period C.

[3] = test system: drug naive patients with type 2 diabetes mellitus; assay: Double-blind first line therapy clinical study: post-prandial glucose (PPG) and PPG excursion; conditions: for 2-hour postprandial glucose excursion from a fasting baseline: placebo 40.3 mg/dL; for decrease in post-prandial glucose excursion: week 20
Description: The term “post-prandial excursion” as employed herein refers to the difference between post-prandial glucose (PPG) and fasting plasma glucose (FPG). […] The dosage strengths of fixed combination product evaluated included metformin 250 mg with glyburide 1.25 mg, and metformin 500 mg with glyburide 2.5 mg. Glycemic control was assessed using Hemoglobin A1c (HbA1c), the gold-standard measure of long-term glycemic control. Mean change from baseline in HbA1c following a 20 week treatment period (4 weeks stable once daily dose, 4 week titration and 12 weeks stable dose) were compared. The treatment phase continued for an additional 12 weeks to assess durability of efficacy. This study was a 34 week, multicenter, randomized, placebo-controlled, double-blind, parallel study with an optional long-term, open-label treatment phase. […] 3. […] Patients were drug naive or had no oral antihyperglycemic therapy for the 2 months prior to screening. […] However, recruitment continued for up to 6 months to recruit up to a maximum of 150 patients per arm to provide additional safety information. The design included 3 periods as follows: Period B began the randomized, double-blind, parallel quadruple dummy treatment phase. Eligible patients were randomized to 1 of 5 study arms which included placebo, glyburide monotherapy, metformin monotherapy, and two different dose strengths of fixed combination metformin/glyburide product (Examples 1 and 2). Subjects were maintained on once daily dosing for a 4 week period so that the contribution of the individual components of the combination product can be assessed by short term glycemic parameters. Period C was the continuation of the randomized, double-blind treatment phase. Subjects were titrated for glycemic control over the first four weeks then dose was maintained for a 24 week stable dose treatment segment. Analysis for the primary outcome, the change from baseline in HbA1c of the two combination therapies (Examples 1 and 2) relative to placebo, was assessed at week 16 of Period C which was after 20 weeks of randomized, double-blind treatment. This was done at this time as there had been adequate time for stabilization of HbA1c and for safety reasons as it was anticipated that a high number of placebo treated patients may have had to discontinue randomized study medication due to insufficient glycemic control as treatment duration was extended. […] The study remained blinded and those subjects who discontinued randomized study drug due to lack of efficacy were eligible to begin the long-term, open-label treatment phase with fixed combination product. Following completion of the single-blind lead-in phase (Period A), qualifying subjects commenced therapy in the randomized, double-blind treatment phase (Period B). […] Following completion of the 4 week stable once daily dose phase (Period B) subjects continued the same randomized therapy in the 28 week titration/stable dose treatment phase (Period C). Study medication was titrated at visits Cl, C15 and C29. Medication was dosed with the first morning meal and with the evening meal. […] After the 4 week titration segment in Period C, subjects continued on a stable dose of study medication for the remainder of Period C.

[4] = Week 20 of double-blind therapy
[5] = Week 32 of double-blind therapy

SMILES: COc1ccc(Cl)cc1C(=O)NCCc1ccc(S(=O)(=O)NC(=O)NC2CCCCC2)cc1 [glyburide]
- early weight gain [1]: 2 kg
- mean HbA1c level [2, 4]: 6.64%
- mean HbA1c level [2, 5]: 6.78%
- frequency of subjects achieving glycemic target of HbA1c<7% [2]: 60%
- glycemic response for baseline HbA1c levels >9% [2]: plateauing of glycemic response
- 2-hour postprandial glucose excursion from a fasting baseline [3]: 38.2 mg/dL
- decrease in post-prandial glucose excursion [3]: 6.8

SMILES: CN(C)C(=N)N=C(N)N [metformin]
- mean HbA1c level [2, 4]: 6.79%
- mean HbA1c level [2, 5]: 6.96%
- frequency of subjects achieving glycemic target of HbA1c<7% [2]: 50%
- glycemic response for baseline HbA1c levels >9% [2]: plateauing of glycemic response
- postprandial glucose excursion lowering, comparison in words ([3]; evaluating the excursion rather than the absolute value): better postprandial glucose lowering than glyburide and placebo
- 2-hour postprandial glucose excursion from a fasting baseline [3]: 29.5 mg/dL
- decrease in post-prandial glucose excursion [3]: 15.2
